Results as given in the kinase profiling compilation of Christmann-Franck et al. (2016).
Where “and” joins values, the source holds several entries; their conditions need not be identical. Equal values may be shown once.

Key:
Test in all cases: radiometric filter-binding kinase assay, Kinase HotSpot
Settings in all cases: compound 0.5 µM; ATP 10 µM
HIPK2 (human) = HIPK2 (human) (UniProt Q9H2X6)
CAMK4 (human) = CAMK4 (human) (UniProt Q16566)
ITK (human) = ITK (human) (UniProt Q08881)
DDR2 (human) = DDR2 (human) (UniProt Q16832)
RPS6KA1 KD1 KD2 (human) = RPS6KA1 KD1 KD2 (human) (UniProt Q15418)
YES1 (human) = YES1 (human) (UniProt P07947)
Chain of YES1 (human) (P07947 whole entry, looked up): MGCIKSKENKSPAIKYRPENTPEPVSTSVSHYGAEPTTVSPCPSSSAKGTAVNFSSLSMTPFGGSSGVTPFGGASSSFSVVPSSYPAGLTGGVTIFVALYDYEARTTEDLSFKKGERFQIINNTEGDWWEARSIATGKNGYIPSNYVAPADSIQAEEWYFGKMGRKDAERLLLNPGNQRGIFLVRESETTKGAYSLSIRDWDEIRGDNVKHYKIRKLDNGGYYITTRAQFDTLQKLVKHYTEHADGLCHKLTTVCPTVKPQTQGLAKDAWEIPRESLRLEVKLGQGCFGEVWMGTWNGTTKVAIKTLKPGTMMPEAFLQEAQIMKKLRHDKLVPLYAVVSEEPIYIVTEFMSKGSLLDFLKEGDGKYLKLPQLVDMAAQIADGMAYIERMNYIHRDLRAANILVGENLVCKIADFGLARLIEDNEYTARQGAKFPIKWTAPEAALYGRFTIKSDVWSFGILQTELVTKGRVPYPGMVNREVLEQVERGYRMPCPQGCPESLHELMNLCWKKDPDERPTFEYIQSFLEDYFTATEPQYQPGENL

AURKC (human) = AURKC (human) (UniProt Q9UQB9)
[1] = system: MKNK1 (human), Q9BUB5 [T385D; 165-205 del]
PRKCB2 (human) = PRKCB2 (human) (UniProt P05771)
CSF1R (human) = CSF1R (human) (UniProt P07333)
PRKD2 (human) = PRKD2 (human) (UniProt Q9BZL6)
FGFR2 (human) = FGFR2 (human) (UniProt P21802)
RIPK2 (human) = RIPK2 (human) (UniProt O43353)
PRKCA (human) = PRKCA (human) (UniProt P17252)
CSNK2A2 (human) = CSNK2A2 (human) (UniProt P19784)
Chain of CSNK2A2 (human) (P19784 whole entry, looked up): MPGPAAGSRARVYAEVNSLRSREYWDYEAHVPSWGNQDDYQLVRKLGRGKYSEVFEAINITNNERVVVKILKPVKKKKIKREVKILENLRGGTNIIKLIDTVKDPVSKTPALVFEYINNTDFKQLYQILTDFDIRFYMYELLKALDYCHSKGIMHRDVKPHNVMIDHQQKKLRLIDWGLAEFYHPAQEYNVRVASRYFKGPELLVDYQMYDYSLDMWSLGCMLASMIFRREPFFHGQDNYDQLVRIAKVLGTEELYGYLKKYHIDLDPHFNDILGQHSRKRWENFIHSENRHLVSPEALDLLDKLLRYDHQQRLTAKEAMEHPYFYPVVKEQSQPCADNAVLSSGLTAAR

SRMS (human) = SRMS (human) (UniProt Q9H3Y6)
Chain of SRMS (human) (Q9H3Y6 whole entry, looked up): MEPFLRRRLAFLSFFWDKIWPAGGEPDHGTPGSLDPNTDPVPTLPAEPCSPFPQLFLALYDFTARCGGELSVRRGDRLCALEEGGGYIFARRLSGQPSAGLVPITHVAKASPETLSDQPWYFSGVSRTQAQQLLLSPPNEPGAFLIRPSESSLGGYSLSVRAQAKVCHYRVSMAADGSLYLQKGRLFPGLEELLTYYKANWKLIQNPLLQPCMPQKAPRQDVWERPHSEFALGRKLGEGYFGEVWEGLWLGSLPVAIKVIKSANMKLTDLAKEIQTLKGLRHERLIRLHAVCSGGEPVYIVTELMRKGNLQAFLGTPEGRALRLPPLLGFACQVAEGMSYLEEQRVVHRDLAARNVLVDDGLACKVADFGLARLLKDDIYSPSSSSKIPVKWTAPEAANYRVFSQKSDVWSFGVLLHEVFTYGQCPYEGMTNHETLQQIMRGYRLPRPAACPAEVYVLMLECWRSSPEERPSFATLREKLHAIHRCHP

EPHA7 (human) = EPHA7 (human) (UniProt Q15375)
EPHB3 (human) = EPHB3 (human) (UniProt P54753)
CAMK2B (human) = CAMK2B (human) (UniProt Q13554)
INSRR (human) = INSRR (human) (UniProt P14616)
BMX (human) = BMX (human) (UniProt P51813)
SRPK2 (human) = SRPK2 (human) (UniProt P78362)
SGK3 (human) = SGK3 (human) (UniProt Q96BR1)
NTRK2 (human) = NTRK2 (human) (UniProt Q16620)
ABL2 (human) = ABL2 (human) (UniProt P42684)
PAK1 (human) = PAK1 (human) (UniProt Q13153)
LYN (human) = LYN (human) (UniProt P07948)
Chain of LYN (human) (P07948 whole entry, looked up): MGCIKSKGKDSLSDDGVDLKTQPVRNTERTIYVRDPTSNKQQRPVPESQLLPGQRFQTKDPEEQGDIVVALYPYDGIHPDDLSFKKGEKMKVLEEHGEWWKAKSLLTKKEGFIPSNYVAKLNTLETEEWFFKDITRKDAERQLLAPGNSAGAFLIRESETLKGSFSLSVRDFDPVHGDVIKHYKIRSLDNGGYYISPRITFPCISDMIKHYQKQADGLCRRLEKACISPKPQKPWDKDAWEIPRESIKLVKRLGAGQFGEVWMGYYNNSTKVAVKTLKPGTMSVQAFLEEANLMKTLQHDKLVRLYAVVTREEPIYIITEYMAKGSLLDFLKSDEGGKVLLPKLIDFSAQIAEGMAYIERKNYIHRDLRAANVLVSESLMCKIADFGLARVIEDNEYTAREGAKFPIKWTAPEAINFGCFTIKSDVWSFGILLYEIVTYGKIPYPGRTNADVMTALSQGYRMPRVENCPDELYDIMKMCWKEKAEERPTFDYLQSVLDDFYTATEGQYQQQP

PHKG2 (human) = PHKG2 (human) (UniProt P15735)
Chain of PHKG2 (human) (P15735 whole entry, looked up): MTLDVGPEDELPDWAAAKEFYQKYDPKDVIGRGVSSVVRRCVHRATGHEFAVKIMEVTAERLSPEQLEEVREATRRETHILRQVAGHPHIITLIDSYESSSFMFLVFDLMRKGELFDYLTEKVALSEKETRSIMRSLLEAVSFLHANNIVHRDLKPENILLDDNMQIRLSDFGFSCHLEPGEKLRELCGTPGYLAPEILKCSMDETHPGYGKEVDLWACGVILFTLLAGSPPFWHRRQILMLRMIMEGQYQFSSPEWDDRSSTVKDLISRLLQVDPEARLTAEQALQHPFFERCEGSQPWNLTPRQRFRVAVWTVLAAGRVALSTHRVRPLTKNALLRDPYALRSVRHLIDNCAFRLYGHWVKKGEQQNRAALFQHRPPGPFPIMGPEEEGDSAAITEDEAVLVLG

MST4 (human) = MST4 (human) (UniProt Q9P289)
NEK11 (human) = NEK11 (human) (UniProt Q8NG66)
PASK (human) = PASK (human) (UniProt Q96RG2)
PRKACA (human) = PRKACA (human) (UniProt P17612)
MAP4K2 (human) = MAP4K2 (human) (UniProt Q12851)
MATK (human) = MATK (human) (UniProt P42679)
CDK2 CCNA2 (human) = CDK2 CCNA2 (human) (UniProt P24941+P20248)
Chain of CDK2 CCNA2 (human) (P20248 whole entry, looked up, other chains not shown): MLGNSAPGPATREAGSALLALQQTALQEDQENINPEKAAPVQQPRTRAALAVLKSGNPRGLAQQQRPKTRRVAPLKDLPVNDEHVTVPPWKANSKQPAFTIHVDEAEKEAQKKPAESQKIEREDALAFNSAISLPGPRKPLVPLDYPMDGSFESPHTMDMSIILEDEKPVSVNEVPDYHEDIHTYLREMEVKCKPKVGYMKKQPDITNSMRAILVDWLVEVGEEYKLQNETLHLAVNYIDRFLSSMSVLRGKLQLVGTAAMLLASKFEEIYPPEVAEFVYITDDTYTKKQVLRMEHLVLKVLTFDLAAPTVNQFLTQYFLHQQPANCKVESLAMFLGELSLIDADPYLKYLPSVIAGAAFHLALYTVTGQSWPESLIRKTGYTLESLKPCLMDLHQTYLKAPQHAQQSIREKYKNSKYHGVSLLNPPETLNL

PLK1 (human) = PLK1 (human) (UniProt P53350)
Chain of PLK1 (human) (P53350 whole entry, looked up): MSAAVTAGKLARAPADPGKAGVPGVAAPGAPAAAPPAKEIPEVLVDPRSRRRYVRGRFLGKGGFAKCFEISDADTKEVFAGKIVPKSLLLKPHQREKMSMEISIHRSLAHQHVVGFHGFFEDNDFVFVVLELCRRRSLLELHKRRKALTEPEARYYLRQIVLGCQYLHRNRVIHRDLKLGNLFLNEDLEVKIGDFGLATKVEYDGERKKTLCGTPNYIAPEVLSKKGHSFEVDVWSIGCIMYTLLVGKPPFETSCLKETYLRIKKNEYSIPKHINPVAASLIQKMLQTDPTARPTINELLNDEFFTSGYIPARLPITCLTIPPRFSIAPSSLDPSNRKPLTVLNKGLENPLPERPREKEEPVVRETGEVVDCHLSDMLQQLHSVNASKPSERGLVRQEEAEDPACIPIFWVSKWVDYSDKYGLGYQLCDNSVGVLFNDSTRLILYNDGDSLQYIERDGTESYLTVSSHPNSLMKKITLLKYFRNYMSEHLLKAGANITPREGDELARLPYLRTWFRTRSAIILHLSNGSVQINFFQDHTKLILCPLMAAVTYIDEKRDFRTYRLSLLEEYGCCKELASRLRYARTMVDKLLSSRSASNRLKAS

CDK9 CCNT1 (human) = CDK9 CCNT1 (human) (UniProt P50750+O60563)
FRK (human) = FRK (human) (UniProt P42685)
MKNK2 (human) = MKNK2 (human) (UniProt Q9HBH9)
PBK (human) = PBK (human) (UniProt Q96KB5)
Chain of PBK (human) (Q96KB5 whole entry, looked up): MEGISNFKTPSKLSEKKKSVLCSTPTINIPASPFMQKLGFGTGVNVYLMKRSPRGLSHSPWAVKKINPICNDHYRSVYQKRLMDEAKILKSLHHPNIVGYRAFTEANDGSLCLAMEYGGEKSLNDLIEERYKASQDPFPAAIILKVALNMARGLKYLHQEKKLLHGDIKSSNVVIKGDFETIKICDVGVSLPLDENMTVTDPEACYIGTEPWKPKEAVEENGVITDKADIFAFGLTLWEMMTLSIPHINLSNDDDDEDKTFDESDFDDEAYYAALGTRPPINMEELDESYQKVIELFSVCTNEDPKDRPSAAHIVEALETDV

DAPK1 (human) = DAPK1 (human) (UniProt P53355)
PRKG1 (human) = PRKG1 (human) (UniProt Q13976)
Chain of PRKG1 (human) (Q13976 whole entry, looked up): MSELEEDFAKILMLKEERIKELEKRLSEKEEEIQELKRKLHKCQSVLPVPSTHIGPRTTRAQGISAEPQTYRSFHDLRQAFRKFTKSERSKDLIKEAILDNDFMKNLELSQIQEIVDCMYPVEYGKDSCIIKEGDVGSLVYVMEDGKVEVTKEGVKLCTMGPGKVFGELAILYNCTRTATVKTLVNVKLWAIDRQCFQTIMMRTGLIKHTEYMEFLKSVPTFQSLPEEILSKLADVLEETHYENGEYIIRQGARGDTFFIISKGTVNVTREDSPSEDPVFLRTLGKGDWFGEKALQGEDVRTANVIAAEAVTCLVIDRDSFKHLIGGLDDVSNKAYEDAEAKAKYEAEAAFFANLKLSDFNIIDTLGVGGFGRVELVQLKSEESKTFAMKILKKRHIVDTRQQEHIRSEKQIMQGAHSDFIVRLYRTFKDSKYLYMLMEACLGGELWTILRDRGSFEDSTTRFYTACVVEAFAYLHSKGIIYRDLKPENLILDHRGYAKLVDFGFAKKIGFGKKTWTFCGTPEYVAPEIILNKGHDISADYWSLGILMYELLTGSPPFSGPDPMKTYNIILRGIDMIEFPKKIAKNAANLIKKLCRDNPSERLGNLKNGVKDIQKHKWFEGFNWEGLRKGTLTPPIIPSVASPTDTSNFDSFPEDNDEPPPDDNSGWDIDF

COc1ccc(C(=O)Nc2sc3c(c2C(N)=O)CCCC3)cc1OC
residual activity (HIPK2 (human)): 107%
residual activity (CAMK4 (human)): 95.7%
residual activity (ITK (human)): 99.6%
residual activity (DDR2 (human)): 102%
residual activity (RPS6KA1 KD1 KD2 (human)): 87%
residual activity (YES1 (human)): 88.3%
residual activity (AURKC (human)): 97.2%
residual activity [1]: 98.2%
residual activity (PRKCB2 (human)): 93.5%
residual activity (CSF1R (human)): 90.2%
residual activity (PRKD2 (human)): 99.4%
residual activity (FGFR2 (human)): 100%
residual activity (RIPK2 (human)): 76.5%
residual activity (PRKCA (human)): 96.6%
residual activity (CSNK2A2 (human)): 104%
residual activity (SRMS (human)): 91%
residual activity (EPHA7 (human)): 96.2%
residual activity (EPHB3 (human)): 92.4%
residual activity (CAMK2B (human)): 99.9%
residual activity (INSRR (human)): 99.7%
residual activity (BMX (human)): 89.8%
residual activity (SRPK2 (human)): 97.6%
residual activity (SGK3 (human)): 103%
residual activity (NTRK2 (human)): 67.4%
residual activity (ABL2 (human)): 101%
residual activity (PAK1 (human)): 94%
residual activity (LYN (human)): 93.5% and 95.9%
residual activity (PHKG2 (human)): 106%
residual activity (MST4 (human)): 96.6%
residual activity (NEK11 (human)): 102%
residual activity (PASK (human)): 101%
residual activity (PRKACA (human)): 102%
residual activity (MAP4K2 (human)): 106%
residual activity (MATK (human)): 92.7%
residual activity (CDK2 CCNA2 (human)): 103%
residual activity (PLK1 (human)): 99%
residual activity (CDK9 CCNT1 (human)): 102%
residual activity (FRK (human)): 88.8%
residual activity (MKNK2 (human)): 78.7%
residual activity (PBK (human)): 103%
residual activity (DAPK1 (human)): 78.2%
residual activity (PRKG1 (human)): 87.5% and 97%

Ic1cccc(CSc2nnc(-c3ccncc3)o2)c1
residual activity (HIPK2 (human)): 102%
residual activity (CAMK4 (human)): 91.6%
residual activity (ITK (human)): 102%
residual activity (DDR2 (human)): 103%
residual activity (RPS6KA1 KD1 KD2 (human)): 98.6%
residual activity (YES1 (human)): 95.7%
residual activity (AURKC (human)): 91.2%
residual activity [1]: 109%
residual activity (PRKCB2 (human)): 91.2%
residual activity (CSF1R (human)): 104%
residual activity (PRKD2 (human)): 97.1%
residual activity (FGFR2 (human)): 101%
residual activity (RIPK2 (human)): 86.3%
residual activity (PRKCA (human)): 123%
residual activity (CSNK2A2 (human)): 81%
residual activity (SRMS (human)): 93.4%
residual activity (EPHA7 (human)): 100%
residual activity (EPHB3 (human)): 99.7%
residual activity (CAMK2B (human)): 95.4%
residual activity (INSRR (human)): 98%
residual activity (BMX (human)): 86.6%
residual activity (SRPK2 (human)): 97.4%
residual activity (SGK3 (human)): 98.5%
residual activity (NTRK2 (human)): 91.4%
residual activity (ABL2 (human)): 110%
residual activity (PAK1 (human)): 94.8%
residual activity (LYN (human)): 103% and 99.6%
residual activity (PHKG2 (human)): 105%
residual activity (MST4 (human)): 103%
residual activity (NEK11 (human)): 113%
residual activity (PASK (human)): 100%
residual activity (PRKACA (human)): 94.6%
residual activity (MAP4K2 (human)): 112%
residual activity (MATK (human)): 94.3%
residual activity (CDK2 CCNA2 (human)): 100%
residual activity (PLK1 (human)): 98.6%
residual activity (CDK9 CCNT1 (human)): 109%
residual activity (FRK (human)): 85.5%
residual activity (MKNK2 (human)): 91.5%
residual activity (PBK (human)): 62.7%
residual activity (DAPK1 (human)): 90.3%
residual activity (PRKG1 (human)): 92.1% and 95.5%

N#Cc1c[nH]c2c[nH]/c(=N\Cc3cccnc3)cc2/c1=N\c1ccc(F)c(Cl)c1
residual activity (HIPK2 (human)): 93.2%
residual activity (CAMK4 (human)): 95.2%
residual activity (ITK (human)): 99.1%
residual activity (DDR2 (human)): 91.9%
residual activity (RPS6KA1 KD1 KD2 (human)): 94.6%
residual activity (YES1 (human)): 93.6%
residual activity (AURKC (human)): 91.8%
residual activity [1]: 73.2%
residual activity (PRKCB2 (human)): 86.2%
residual activity (CSF1R (human)): 96.3%
residual activity (PRKD2 (human)): 99.7%
residual activity (FGFR2 (human)): 103%
residual activity (RIPK2 (human)): 85.3%
residual activity (PRKCA (human)): 89.7%
residual activity (CSNK2A2 (human)): 75.2%
residual activity (SRMS (human)): 104%
residual activity (EPHA7 (human)): 83.7%
residual activity (EPHB3 (human)): 98.5%
residual activity (CAMK2B (human)): 97.4%
residual activity (INSRR (human)): 97%
residual activity (BMX (human)): 84%
residual activity (SRPK2 (human)): 101%
residual activity (SGK3 (human)): 91.5%
residual activity (NTRK2 (human)): 101%
residual activity (ABL2 (human)): 87.4%
residual activity (PAK1 (human)): 95.7%
residual activity (LYN (human)): 90.4% and 94.1%
residual activity (PHKG2 (human)): 88.3%
residual activity (MST4 (human)): 95%
residual activity (NEK11 (human)): 87.1%
residual activity (PASK (human)): 124%
residual activity (PRKACA (human)): 92.2%
residual activity (MAP4K2 (human)): 72.2%
residual activity (MATK (human)): 95.9%
residual activity (CDK2 CCNA2 (human)): 75.1%
residual activity (PLK1 (human)): 92.6%
residual activity (CDK9 CCNT1 (human)): 91.2%
residual activity (FRK (human)): 101%
residual activity (MKNK2 (human)): 79.3%
residual activity (PBK (human)): 84.8%
residual activity (DAPK1 (human)): 102%
residual activity (PRKG1 (human)): 87.2% and 90.8%

Cc1nc(-c2ccccc2)c(-c2ccncc2)o1
residual activity (HIPK2 (human)): 95.5%
residual activity (CAMK4 (human)): 97.2%
residual activity (ITK (human)): 97.1%
residual activity (DDR2 (human)): 97.4%
residual activity (RPS6KA1 KD1 KD2 (human)): 103%
residual activity (YES1 (human)): 101%
residual activity (AURKC (human)): 95.7%
residual activity [1]: 123%
residual activity (PRKCB2 (human)): 88.4%
residual activity (CSF1R (human)): 104%
residual activity (PRKD2 (human)): 97.7%
residual activity (FGFR2 (human)): 108%
residual activity (RIPK2 (human)): 87.4%
residual activity (PRKCA (human)): 98.3%
residual activity (CSNK2A2 (human)): 89.8%
residual activity (SRMS (human)): 102%
residual activity (EPHA7 (human)): 91.5%
residual activity (EPHB3 (human)): 99.2%
residual activity (CAMK2B (human)): 95.9%
residual activity (INSRR (human)): 101%
residual activity (BMX (human)): 102%
residual activity (SRPK2 (human)): 92.3%
residual activity (SGK3 (human)): 96.4%
residual activity (NTRK2 (human)): 103%
residual activity (ABL2 (human)): 92.8%
residual activity (PAK1 (human)): 98.7%
residual activity (LYN (human)): 104% and 97.4%
residual activity (PHKG2 (human)): 97.6%
residual activity (MST4 (human)): 114%
residual activity (NEK11 (human)): 76.7%
residual activity (PASK (human)): 98.1%
residual activity (PRKACA (human)): 98.9%
residual activity (MAP4K2 (human)): 106%
residual activity (MATK (human)): 90.3%
residual activity (CDK2 CCNA2 (human)): 104%
residual activity (PLK1 (human)): 104%
residual activity (CDK9 CCNT1 (human)): 84.6%
residual activity (FRK (human)): 103%
residual activity (MKNK2 (human)): 90.5%
residual activity (PBK (human)): 110%
residual activity (DAPK1 (human)): 124%
residual activity (PRKG1 (human)): 90.5% and 96.1%
